Laboratory results as given in ChEMBL document CHEMBL5055644, “Cysteine derivatives as acetyl lysine mimics to inhibit zinc-dependent histone deacetylases for treating cancer” (Eur J Med Chem, 2021).
pIC50: −log10 of the molar value. Activity calls are given as the source filed them. No cut-off for these calls is given here.

Legend:
[1] = Half life in human liver microsomes; format: ADME, Microsome
[2] = biological target: Histone deacetylase 3/Nuclear receptor corepressor 2 (HDAC3/NCoR2) (Homo sapiens, UniProt O15379); test: Inhibition of C-terminal His-tagged recombinant human HDAC3 (1 to 428 residues)/N-terminal GST-tagged recombinant human NCoR2 (395 to 489 residues) co-expressed in baculovirus infected Sf9 cells using Boc-Lys(acetyl)-AMC as fluorogenic substrate measured after 1 hr by flourescence plate reader method
Sequence of Histone deacetylase 3/Nuclear receptor corepressor 2 (HDAC3/NCoR2) (O15379 whole entry, the tested form may be a part): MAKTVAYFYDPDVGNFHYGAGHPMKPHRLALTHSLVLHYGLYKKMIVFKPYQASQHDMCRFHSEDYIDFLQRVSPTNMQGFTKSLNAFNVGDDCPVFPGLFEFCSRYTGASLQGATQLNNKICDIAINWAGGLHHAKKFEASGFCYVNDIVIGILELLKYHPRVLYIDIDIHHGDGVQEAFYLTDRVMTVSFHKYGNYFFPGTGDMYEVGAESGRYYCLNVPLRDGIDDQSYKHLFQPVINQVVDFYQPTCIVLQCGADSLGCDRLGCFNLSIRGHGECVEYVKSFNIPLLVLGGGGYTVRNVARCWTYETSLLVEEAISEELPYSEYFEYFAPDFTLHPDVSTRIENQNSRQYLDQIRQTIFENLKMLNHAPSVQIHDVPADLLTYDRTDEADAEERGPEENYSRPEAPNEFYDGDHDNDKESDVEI
Sequence of Histone deacetylase 3/Nuclear receptor corepressor 2 (HDAC3/NCoR2) (Q9Y618 whole entry, further chain, the tested form may be a part): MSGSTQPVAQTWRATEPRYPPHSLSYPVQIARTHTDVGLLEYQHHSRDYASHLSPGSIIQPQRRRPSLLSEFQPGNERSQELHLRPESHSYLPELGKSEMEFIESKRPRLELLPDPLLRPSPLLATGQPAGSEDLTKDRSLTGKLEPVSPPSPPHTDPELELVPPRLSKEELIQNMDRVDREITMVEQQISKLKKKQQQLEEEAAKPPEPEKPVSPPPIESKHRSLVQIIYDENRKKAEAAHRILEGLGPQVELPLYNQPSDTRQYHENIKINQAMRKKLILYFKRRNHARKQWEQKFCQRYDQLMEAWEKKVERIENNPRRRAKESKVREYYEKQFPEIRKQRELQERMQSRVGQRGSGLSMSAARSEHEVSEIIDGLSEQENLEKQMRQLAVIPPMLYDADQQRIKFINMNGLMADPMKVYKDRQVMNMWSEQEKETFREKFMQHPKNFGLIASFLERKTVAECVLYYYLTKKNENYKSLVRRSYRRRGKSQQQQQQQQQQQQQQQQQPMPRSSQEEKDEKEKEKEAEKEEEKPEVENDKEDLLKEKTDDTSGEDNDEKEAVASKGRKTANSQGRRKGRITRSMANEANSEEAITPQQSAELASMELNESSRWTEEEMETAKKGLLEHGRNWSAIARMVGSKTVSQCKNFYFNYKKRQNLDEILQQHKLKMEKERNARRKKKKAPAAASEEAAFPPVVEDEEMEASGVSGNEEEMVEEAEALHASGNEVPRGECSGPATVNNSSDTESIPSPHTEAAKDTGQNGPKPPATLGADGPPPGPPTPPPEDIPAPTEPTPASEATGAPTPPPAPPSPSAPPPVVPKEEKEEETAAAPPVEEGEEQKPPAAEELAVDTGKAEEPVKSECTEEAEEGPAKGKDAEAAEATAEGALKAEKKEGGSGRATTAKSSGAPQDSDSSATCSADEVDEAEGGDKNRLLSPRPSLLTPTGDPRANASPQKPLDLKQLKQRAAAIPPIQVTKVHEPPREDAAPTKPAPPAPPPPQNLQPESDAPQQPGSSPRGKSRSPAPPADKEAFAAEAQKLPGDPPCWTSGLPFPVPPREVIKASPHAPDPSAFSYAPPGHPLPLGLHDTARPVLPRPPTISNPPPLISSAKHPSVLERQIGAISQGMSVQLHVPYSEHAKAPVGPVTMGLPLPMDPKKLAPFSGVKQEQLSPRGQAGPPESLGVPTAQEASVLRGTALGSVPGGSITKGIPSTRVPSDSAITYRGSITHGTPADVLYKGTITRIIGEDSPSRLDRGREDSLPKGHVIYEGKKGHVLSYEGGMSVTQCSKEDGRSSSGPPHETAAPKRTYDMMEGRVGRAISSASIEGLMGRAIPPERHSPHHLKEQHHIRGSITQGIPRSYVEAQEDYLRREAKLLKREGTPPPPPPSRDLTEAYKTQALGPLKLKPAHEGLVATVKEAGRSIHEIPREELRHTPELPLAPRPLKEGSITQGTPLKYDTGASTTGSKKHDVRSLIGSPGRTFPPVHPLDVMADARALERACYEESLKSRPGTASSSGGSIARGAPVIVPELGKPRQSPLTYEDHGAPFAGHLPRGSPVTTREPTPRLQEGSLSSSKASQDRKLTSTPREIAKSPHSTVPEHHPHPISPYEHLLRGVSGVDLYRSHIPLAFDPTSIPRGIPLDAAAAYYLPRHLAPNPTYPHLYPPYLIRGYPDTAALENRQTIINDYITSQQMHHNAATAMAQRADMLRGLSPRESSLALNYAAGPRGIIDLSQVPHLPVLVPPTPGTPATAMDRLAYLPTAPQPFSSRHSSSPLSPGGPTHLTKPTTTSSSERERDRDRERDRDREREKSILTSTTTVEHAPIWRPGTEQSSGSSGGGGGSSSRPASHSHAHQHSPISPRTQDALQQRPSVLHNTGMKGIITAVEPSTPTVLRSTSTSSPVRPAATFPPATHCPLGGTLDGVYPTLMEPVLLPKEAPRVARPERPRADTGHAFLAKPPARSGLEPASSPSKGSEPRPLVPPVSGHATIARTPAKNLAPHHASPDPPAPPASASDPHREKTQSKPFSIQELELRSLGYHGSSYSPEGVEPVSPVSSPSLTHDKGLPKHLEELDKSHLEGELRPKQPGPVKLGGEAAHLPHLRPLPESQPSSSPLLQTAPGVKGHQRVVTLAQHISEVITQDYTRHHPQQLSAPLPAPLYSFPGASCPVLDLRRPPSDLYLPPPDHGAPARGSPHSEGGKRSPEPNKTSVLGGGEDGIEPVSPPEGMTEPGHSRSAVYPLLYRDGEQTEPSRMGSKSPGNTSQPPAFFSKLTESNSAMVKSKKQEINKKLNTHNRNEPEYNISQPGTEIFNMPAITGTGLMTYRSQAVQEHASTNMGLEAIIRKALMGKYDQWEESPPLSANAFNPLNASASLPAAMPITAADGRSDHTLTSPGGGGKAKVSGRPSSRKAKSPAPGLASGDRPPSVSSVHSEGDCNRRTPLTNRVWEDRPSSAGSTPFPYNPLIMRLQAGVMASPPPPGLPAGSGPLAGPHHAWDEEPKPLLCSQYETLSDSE

[3] = biological target: T1, Class 1 histone deacetylase (Homo sapiens) (UniProt Q13547+O15379+Q92769+Q9BY41); test: Inhibition of class 1 HDAC in human K562 cells assessed as increase in histone H4 acetylation at 10 uM measured after 8 hrs by Western blot analysis; format: cell-based
T1 sequence (O15379 whole entry, looked up): as the sequence (O15379 whole entry, the tested form may be a part) above
T1 sequence (Q13547 whole entry, looked up): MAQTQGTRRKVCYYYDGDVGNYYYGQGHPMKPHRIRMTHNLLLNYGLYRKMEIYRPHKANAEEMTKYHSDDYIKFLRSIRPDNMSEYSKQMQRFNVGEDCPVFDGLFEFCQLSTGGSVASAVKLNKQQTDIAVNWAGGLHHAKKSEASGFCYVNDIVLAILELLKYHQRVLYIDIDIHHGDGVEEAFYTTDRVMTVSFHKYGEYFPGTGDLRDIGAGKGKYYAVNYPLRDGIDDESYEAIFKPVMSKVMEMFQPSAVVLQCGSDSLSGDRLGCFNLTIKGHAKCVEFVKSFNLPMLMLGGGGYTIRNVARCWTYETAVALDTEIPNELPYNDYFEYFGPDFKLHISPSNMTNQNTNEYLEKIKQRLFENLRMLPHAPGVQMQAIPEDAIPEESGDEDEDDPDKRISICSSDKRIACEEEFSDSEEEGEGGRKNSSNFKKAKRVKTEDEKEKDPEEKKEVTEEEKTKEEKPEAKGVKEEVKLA
T1 sequence (Q92769 whole entry, looked up): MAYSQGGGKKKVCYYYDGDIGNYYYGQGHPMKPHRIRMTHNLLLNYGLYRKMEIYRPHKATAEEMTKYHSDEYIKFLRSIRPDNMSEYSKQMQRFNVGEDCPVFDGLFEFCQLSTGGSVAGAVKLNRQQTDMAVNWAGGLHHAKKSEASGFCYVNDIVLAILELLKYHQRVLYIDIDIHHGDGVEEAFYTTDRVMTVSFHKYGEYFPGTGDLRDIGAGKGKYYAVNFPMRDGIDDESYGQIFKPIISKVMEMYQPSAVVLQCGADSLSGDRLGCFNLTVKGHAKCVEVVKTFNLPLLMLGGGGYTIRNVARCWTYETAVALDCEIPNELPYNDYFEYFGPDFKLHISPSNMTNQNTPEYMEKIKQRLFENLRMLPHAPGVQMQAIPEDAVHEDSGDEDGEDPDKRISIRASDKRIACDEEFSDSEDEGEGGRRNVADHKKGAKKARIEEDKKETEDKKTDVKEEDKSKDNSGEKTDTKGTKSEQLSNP
T1 sequence (Q9BY41 whole entry, looked up): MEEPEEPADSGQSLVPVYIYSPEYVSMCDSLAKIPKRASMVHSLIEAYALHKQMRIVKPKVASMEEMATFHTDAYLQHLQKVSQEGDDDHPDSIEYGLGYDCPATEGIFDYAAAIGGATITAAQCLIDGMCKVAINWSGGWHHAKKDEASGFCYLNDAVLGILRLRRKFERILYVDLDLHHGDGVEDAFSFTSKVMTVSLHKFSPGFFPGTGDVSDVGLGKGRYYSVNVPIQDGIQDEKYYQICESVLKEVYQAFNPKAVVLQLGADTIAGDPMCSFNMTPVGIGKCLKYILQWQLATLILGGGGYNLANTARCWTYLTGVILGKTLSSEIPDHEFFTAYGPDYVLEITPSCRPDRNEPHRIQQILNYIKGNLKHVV

[4] = Half life in mouse liver microsomes; format: ADME, Microsome
[5] = biological target: T1, Class 1 histone deacetylase (Homo sapiens); test: Inhibition of class 1 HDAC in human K562 cells assessed as increase in histone H3 acetylation at 10 uM measured after 8 hrs by Western blot analysis; format: cell-based
[6] = biological target: Histone deacetylase 2 (Homo sapiens, UniProt Q92769); test: Inhibition of full length human HDAC2 using Boc-Lys(acetyl)-AMC as fluorogenic substrate measured after 1 hr by flourescence plate reader method
Sequence of Histone deacetylase 2 (Q92769 whole entry): as the sequence (Q92769 whole entry, looked up) above

[7] = tested on: A549; test: cells; format: functional; conditions: Homo sapiens, time 48 hrs
Description: Antiproliferative activity against human A549 cells assessed as inhibition of cell proliferation incubated for 48 hrs by CCK8 assay

[8] = biological target: T2, Protein deacetylase HDAC6 (Homo sapiens) (UniProt Q9UBN7); test: Inhibition of HDAC6 in human K562 cells assessed as increase in alpha tubulin acetylation at 10 uM measured after 8 hrs by Western blot analysis; format: cell-based
T2 sequence (whole entry): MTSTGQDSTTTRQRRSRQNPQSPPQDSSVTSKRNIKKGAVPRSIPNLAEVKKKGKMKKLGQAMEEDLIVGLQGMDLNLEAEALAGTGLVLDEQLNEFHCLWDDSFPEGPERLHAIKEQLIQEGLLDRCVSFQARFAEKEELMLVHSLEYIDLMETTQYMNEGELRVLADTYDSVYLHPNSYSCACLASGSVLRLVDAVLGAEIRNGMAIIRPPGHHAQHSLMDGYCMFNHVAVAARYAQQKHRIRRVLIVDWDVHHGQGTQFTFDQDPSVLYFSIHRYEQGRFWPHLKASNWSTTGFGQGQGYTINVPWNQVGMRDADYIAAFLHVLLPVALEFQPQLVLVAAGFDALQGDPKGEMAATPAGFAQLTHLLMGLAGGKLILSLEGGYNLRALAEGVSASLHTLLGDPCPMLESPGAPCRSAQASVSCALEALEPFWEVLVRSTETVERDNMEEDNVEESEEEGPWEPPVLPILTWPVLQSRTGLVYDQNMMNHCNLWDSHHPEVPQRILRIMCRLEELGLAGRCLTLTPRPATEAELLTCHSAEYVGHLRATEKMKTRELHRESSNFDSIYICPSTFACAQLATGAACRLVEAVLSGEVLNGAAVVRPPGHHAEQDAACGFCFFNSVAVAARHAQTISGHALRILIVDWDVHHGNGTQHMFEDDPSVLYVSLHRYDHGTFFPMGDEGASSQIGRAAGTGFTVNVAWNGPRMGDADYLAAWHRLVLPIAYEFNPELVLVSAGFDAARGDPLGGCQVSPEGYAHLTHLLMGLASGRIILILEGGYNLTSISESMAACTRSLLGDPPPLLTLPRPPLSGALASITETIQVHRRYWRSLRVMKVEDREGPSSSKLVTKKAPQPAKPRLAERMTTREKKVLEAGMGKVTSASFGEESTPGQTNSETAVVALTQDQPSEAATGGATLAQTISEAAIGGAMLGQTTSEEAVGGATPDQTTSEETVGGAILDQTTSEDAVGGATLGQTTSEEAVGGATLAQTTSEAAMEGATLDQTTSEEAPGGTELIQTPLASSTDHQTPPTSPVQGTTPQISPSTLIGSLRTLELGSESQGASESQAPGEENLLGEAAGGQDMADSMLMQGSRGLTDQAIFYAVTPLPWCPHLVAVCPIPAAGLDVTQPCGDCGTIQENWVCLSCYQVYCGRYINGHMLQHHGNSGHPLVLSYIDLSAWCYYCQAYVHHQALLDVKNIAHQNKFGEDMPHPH

[9] = biological target: T3, Histone deacetylase 7 (Homo sapiens, UniProt Q8WUI4); test: Inhibition of human N-terminal GST tagged HDAC7 (518 to end residues) expressed in baculovirus infected Sf9 insect cells using Boc-Lys(acetyl)-AMC as fluorogenic substrate measured after 1 hr by flourescence plate reader method
T3 sequence (Q8WUI4 whole entry): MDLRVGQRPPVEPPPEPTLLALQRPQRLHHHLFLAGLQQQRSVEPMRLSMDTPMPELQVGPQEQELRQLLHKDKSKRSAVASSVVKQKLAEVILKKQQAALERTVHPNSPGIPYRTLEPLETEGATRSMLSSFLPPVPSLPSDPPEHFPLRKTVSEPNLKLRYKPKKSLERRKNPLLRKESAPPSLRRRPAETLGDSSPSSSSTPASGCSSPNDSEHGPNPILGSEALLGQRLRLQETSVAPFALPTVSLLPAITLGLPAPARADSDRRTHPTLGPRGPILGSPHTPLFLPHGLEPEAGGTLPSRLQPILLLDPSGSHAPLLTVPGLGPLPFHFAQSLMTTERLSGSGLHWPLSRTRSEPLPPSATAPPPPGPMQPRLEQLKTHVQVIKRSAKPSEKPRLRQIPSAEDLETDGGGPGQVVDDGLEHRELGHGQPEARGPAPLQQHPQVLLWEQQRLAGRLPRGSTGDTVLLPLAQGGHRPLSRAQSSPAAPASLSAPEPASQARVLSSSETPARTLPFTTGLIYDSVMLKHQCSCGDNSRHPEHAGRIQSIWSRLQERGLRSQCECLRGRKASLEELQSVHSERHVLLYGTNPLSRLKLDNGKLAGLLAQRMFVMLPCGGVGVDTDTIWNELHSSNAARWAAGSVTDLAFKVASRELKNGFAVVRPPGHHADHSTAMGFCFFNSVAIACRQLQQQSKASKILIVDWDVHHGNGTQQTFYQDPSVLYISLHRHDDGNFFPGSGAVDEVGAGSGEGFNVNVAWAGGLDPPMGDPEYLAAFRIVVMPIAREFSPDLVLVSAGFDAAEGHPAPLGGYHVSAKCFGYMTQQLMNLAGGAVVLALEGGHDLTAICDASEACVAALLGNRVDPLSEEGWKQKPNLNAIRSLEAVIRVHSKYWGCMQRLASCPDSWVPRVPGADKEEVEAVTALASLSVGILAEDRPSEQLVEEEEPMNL

[10] = biological target: Histone deacetylase (Homo sapiens) (UniProt Q13547+O15379+Q9UBN7+Q92769+Q9UQL6+Q8WUI4+Q9BY41+Q96DB2+P56524+Q9UKV0+Q969S8); test: Inhibition of HDAC in human HeLa nuclear extract at 1 uM using Boc-Lys(acetyl)-AMC as fluorogenic substrate measured after 1 hr by flourescence plate reader method relative to control; format: subcellular; conditions: Nucleus
[11] = tested on: A549; test: Upregulation of p21 in human A549 cells up to 10 uM measured after 8 hrs by Western blot analysis; format: functional, cell-based

| SMILES | half-life [1] [min] | pIC50 [2] | inhibition [3] | half-life [4] [min] | inhibition [5] | pIC50 [6] | GI50 [7] [nM] | inhibition [8] | pIC50 [9] | inhibition [10] [%] | Activity [11] |
| --- | --- | --- | --- | --- | --- | --- | --- | --- | --- | --- | --- |
| O=C(CCCSC[C@H](NC(=O)OCc1ccccc1)C(=O)Nc1cccc2ccccc12)NO | 3.96 | 7.16 | Active | < 1 | Active | < 6.70 | 5300 | Active | < 6.70 | 83 | – |
| O=C(CCCSC[C@H](NC(=O)OCc1ccccc1)C(=O)Nc1ccccc1)NO | – | 6.97 | Active | – | Active | < 6.70 | 3500 | Active | < 6.70 | 84 | – |
| O=C(CCCSC[C@H](NC(=O)c1ccccc1)C(=O)Nc1ccccc1)NO | 34.8 | 6.90 | Active | 22.6 | Active | < 6.70 | 4700 | Active | < 6.70 | 80 | Active |
